The values that follow come from patent publication EP4361137A1, “PRUNE1 INHIBITORS AND THERAPEUTIC USE THEREOF” (CEINGE Biotecnologie Avanzate Franco Salvatore s.c. a r.l., priority 2022, dated 2024).

For assay [1], the system named is D425-Med cells. The assay can be described thus: In vivo combinatorial treatment with Vincristine, orthotopic medulloblastoma model. Set-up: species or system nude mice. As for the experimental part:
We then measured the combinatorial treatment with (S)-(1-(4-((4-methoxybenzyl)amino)-1,3,5-triazin-2-yl)piperidin-3-yl)methanol HCl salt compound and Vincristine in vivo. To this end, D425-Med cells (1 ×10^5 cells) were implanted into the fourth ventricle of nude mice (n=18). After 7 days from tumour implantation (i.e., once the tumours were established) the mice (grouped according to their bioluminescence values) were injected intraperitoneally with 0.3 mg/kg/day Vincristine alone or in combination with 6 mg/kg/day (S)-(1-(4-((4-methoxybenzyl)amino)-1,3,5-triazin-2-yl)piperidin-3-yl)methanol HCl salt compound for 18 days (Figures 9E).

For assay [2], the target named is T1, Prune1 (Homo sapiens, UniProt Q86TP1).
T1 construct: endogenous in cells; host or cells: D425-MED cells
T1 sequence (Q86TP1 1-453): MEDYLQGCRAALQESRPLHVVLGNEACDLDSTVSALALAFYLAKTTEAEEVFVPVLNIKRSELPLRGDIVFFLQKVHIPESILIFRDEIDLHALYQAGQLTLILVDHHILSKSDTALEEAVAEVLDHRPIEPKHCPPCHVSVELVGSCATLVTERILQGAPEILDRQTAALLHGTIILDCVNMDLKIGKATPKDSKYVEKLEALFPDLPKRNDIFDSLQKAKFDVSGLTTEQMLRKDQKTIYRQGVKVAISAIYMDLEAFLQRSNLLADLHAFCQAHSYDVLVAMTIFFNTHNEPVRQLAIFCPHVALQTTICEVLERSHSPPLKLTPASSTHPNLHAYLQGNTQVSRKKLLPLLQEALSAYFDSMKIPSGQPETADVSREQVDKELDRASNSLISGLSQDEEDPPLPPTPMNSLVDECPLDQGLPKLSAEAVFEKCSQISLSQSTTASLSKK
The assay can be described thus: Immunoblotting and densitometry of Prune1 in D425-MED cells. The format is cell-based. The procedure:
D425.MED and MMTV-Prune1/Wnt1 cells were plated and treated with increasing concentrations of LEO-AA7.5(S)T for 24 hours. Water-treated cells were used as negative control for the experiments.
Cells for immunoblotting analysis were washed in cold PBS and lysed in cell lysis buffer [20 mM sodium phosphate (pH 7.4), 150 mM NaCl, 10% (v/v) glycerol, 1% (w/v) sodium deoxycholate, 1% (v/v) Triton X-100] supplemented with protease inhibitors (Roche). The resulting cell lysates were cleared by centrifugation at 16,200g for 10 min at room temperature, and the supernatants were re- moved and assayed for protein concentrations with the Protein Assay Dye Reagent (Bio-Rad). The cell lysates (30 µg) were resolved by SDS-polyacrylamide gel electrophoresis (SDS-PAGE) gels of different percentages, which depended on the molecular weights of the proteins of interest. The proteins were then electrophoretically transferred to polyvinylidene difluoride (PVDF) membranes (Millipore). After 1 hour in blocking solution with 5% (w/v) dry milk fat in PBS or 5% (w/v) BSA (Sigma-Aldrich) in tris-buffered saline [both of which contained 0.02% (v/v) Tween 20] […] The peak areas of the bands were measured on the densitometry plots, and the relative proportions (percentages) were calculated. […]

As to `COc1ccc(CNc2ncnc(N3CCC[C@H](CO)C3)n2)cc1.Cl` [LEO-AA7.5(S)T, (S)-(1-(4-((4-methoxybenzyl)amino)-1,3,5-triazin-2-yl)piperidin-3-yl)methanol HCl salt], in assay [1] (6 mg/kg/day plus 0.3 mg/kg/day Vincristine intraperitoneally for 18 days), the “intracranial tumor growth, combinatorial treatment with Vincristine” value is reported as “significantly decreased”. In assay [1] (combinatorial treatment with Vincristine), the “angiogenesis (IVISense Integrin Receptor 680 Fluorescent Probe)” value was “decreased levels of angiogenesis”. In addition, the “dose effective on Prune1 target inhibition/degradation in vitro, lower than AA7.1” value in assay [2] (10 µM vs 100 µM AA7.1) is recorded as 10 fold. In addition, the Prune1 protein levels in assay [2] (D425-Med cells, 10 µM, 24 hours, densitometry relative to vehicle) was found to be 0.6 fold.
